{
  "source": "patent US10864238B2",
  "about": "“Composition containing Poria cocos peel extract for treating neurodegenerative disorders” (NeuroBo Pharmaceuticals, Inc., priority 2014, dated 2020)",
  "key": {"[1]": {"test_system": "human Tau [pS199]", "assay": "Phosphorylated tau in neuronal cell line (ELISA)", "assay_type": "cell-based", "conditions": "10 ug/ml; SH-SY5Y; FIG. 11", "description": "Phosphorylated tau levels were measured in order to confirm the inhibitory effect of Poria cocos peel extracts on tau hyper-phosphorylation. SH-SY5Y cells (1×10^6 cells/well) were seeded in 6-well culture plates and cultured in DMEM/F12 (Dulbecco's modified Eagle's medium) medium containing 10% FBS (fetal bovine serum) for 48 hours. After 5 days of differentiation using DMEM/F12 medium containing 10 μM retinoic acid and 3% FBS, after 6 hours of treatment with the Poria cocos peel extracts (10 or 100 ug/mL), Aβ42 was treated and cultured for a total of 48 hours. After cell lysis using RIPA buffer, the protein content was quantitated with BCA reagent purchased from Pierce. Phosphorylated tau was measured using human Tau [pS199] enzyme-linked immunosorbent assay (ELISA) KIT purchased from Invitrogen."}, "[2]": {"test_system": "beta-nerve growth factor", "assay": "NGF level measurement in nerve cell line (ELISA)", "assay_type": "cell-based, human", "conditions": "10 ug/mL; SH-SY5Y; FIG. 12", "description": "NGF levels were measured in order to determine the mechanism of cognitive improvement of the Poria cocos peel extracts. SH-SY5Y cells (1×10^6 cells/well) were inoculated on 6-well culture plates and cultured in DMEM/F12 (Dulbecco's modified Eagle's medium) medium containing 10% fetal bovine serum for 48 hours. After 5 days of differentiation using DMEM/F12 medium containing 10 μM retinoic acid and 3% FBS, the cells were treated with Poria cocos peel extracts (10 or 100 ug/ml). Cells were lysed using RIPA buffer, and protein content was quantitated with BCA reagent purchased from Pierce. NGF levels were measured using a beta-nerve growth factor human enzyme-linked immunosorbent assay (ELISA) KIT purchased from Abcam."}},
  "data": [
    {"molecule": "COc1cc2c(cc1OC)C(=O)C(CC1CCN(Cc3ccccc3)CC1)C2", "note": "(centres unmarked) [Donepezil]", "values": [
      {"measurement": "tau phosphorylation induced by Aβ42", "setting": "[1]", "value": "did not show the inhibitory effect on tau phosphorylation"},
      {"measurement": "NGF production", "setting": "[2]", "value": "did not show NGF-related efficacy"}
    ]}
  ]
}
